US9650369B2, “Anti-migration and anti-invasion thiazole analogs for treatment of cellular proliferative disease” (XAVIER UNIVERSITY OF LOUISIANA, priority 2012, dated 2017)

Assays:
[1] = cytotoxicity of additional thiazole compounds (Table 3); format: cell-based; details: cell line not given
From the text: (§1) The additional thiazole compounds were synthesized and tested for antimigration efficacy and cytotoxicity, with results shown in TABLE 3.

[2] = antimigration efficacy of additional thiazole compounds (Table 3); format: cell-based; details: cell line not given; read-out: IC50 (anti-migration)
From the text: as §1

| SMILES | Cytotoxicity (Survival at 1 μM) [1] | IC50 [2] |
| --- | --- | --- |
| CCn1c(-c2ccc(C)cc2C)csc1=NC(=O)c1ccccc1 [Compound 5l, N-(4-(2,4-Dimethylphenyl)-3-ethylthiazol-2(3H)-ylidene)benzamide] | 141.8% | 5560 nM |
| CCCn1c(-c2ccc(C)cc2C)csc1=NC(=O)c1ccccc1 [Compound 5m, N-(4-(2,4-Dimethylphenyl)-3-propylthiazol-2(3H)-ylidene)benzamide] | 85.0% | 176 nM |
| CCCCn1c(-c2ccc(C)cc2C)csc1=NC(=O)c1ccccc1 [Compound 5n, N-(3-Butyl-4-(2,4-dimethylphenyl)thiazol-2(3H)-ylidene)benzamide] | 70.4% | 333 nM |
| CCCCCCn1c(-c2ccc(C)cc2C)csc1=NC(=O)c1ccccc1 [Compound 5o, N-(4-(2,4-Dimethylphenyl)-3-hexylthiazol-2(3H)-ylidene)benzamide] | 90.0% | 87 nM |
| CCCCCCCCCCCCn1c(-c2ccc(C)cc2C)csc1=NC(=O)c1ccccc1 [Compound 5p, N-(4-(2,4-Dimethylphenyl)-3-dodecylthiazol-2(3H)-ylidene)benzamide] | 109.5% | 32 nM |
| C=CCn1c(-c2ccc(C)cc2C)csc1=NC(=O)c1ccccc1 [Compound 5q, N-(3-Allyl-4-(2,4-dimethylphenyl)thiazol-2(3H)-ylidene)benzamide] | 115.3% | 242 nM |
| C#CCn1c(-c2ccc(C)cc2C)csc1=NC(=O)c1ccccc1 [Compound 5r, N-(4-(2,4-Dimethylphenyl)-3-(prop-2-yn-1-yl)thiazol-2(3H)-ylidene)benzamide] | 70.2% | 11000 nM |
| C#CCN(C(=O)c1ccccc1)c1nc(-c2ccc(C)cc2C)cs1 [Compound 6, N-(4-(2,4-Dimethylphenyl)thiazol-2-yl)-N-(prop-2-yn-1-yl)benzamide] | 106.4% | – |
| CCN(C(=O)c1ccccc1)c1nc(-c2ccccc2)cs1 [Compound 7a, N-Ethyl-N-(4-phenylthiazol-2-yl)benzamide] | 68.5% | 565 nM |
| CCCn1c(-c2ccccc2)csc1=NC(=O)c1ccccc1 [Compound 7b, N-(4-Phenyl-3-propylthiazol-2(3H)-ylidene)benzamide] | 100.0% | 432 nM |
| C=CCn1c(-c2ccccc2)csc1=NC(=O)c1ccccc1 [Compound 7c, N-(3-Allyl-4-phenylthiazol-2(3H)-ylidene)benzamide] | 64.8% | 24.3 nM |
| C#CCn1c(-c2ccccc2)csc1=NC(=O)c1ccccc1 [Compound 7d, N-(4-Phenyl-3-(prop-2-yn-1-yl)thiazol-2(3H)-ylidene)benzamide] | 63.0% | 64.7 nM |
| CCn1c(-c2ccccc2)csc1=NC(=O)c1ccccc1 [Compound 8a, N-(4-phenyl-3-ethylthiazol-2(3H)-ylidene)benzamide] | 128.9% | 883 nM |
| CCCN(C(=O)c1ccccc1)c1nc(-c2ccccc2)cs1 [Compound 8b, N-(4-Phenylthiazol-2-yl)-N-propylbenzamide] | 116.0% | 32.4 nM |
| Cc1ccc(-c2csc(NS(=O)(=O)c3ccccc3)n2)c(C)c1 [Compound 10, N-(4-(2,4-Dimethylphenyl)thiazol-2-yl)benzenesulfonamide] | 137.4% | 11000 nM |
| Cc1ccc(-c2csc(=NS(=O)(=O)c3ccccc3)n2C)c(C)c1 [Compound 11, N-(4-(2,4-Dimethylphenyl)-3-methylthiazol-2(3H)-ylidene)benzenesulfonamide] | 92.4% | 1460 nM |
| Cc1ccc(-c2csc(N(C)S(=O)(=O)c3ccccc3)n2)c(C)c1 [Compound 12, N-(4-(2,4-Dimethylphenyl)thiazol-2-yl)-N-methylbenzenesulfonamide] | 116.7% | > 25000 nM |
